Reference: patent US7208467B2, “Lipid-altering compositions for the treatment of infertility” (priority 2002, dated 2007)

Assays:
SR-BI = test: Immunoblot of SR-BI expression in tissues of estrogen-treated rats; format: in vivo, rat
Procedure: Tissues of estrogen-treated rats were screened for expression of SR-BI as described above following treatment of rats with 17-α-ethylenyl estradiol (estrogen). The rats were treated for five consecutive days with subcutaneous injections of 5 mg/kg 17-α-ethylenyl estradiol in propylene glycol or with propylene glycol alone (sham-injected).

LDL receptor = test: Immunoblot of LDL receptor expression in estrogen-treated rats; format: in vivo; conditions: rat, liver
HDL lipid uptake = HDL lipid uptake in vivo after DiI-HDL injection in estrogen-treated rats; parameters: species or system rat; conditions: DiI-HDL 800 μg protein/kg into jugular vein, 1 hour
Procedure: For analysis of HDL lipid uptake in vivo, rats were anesthetized with nembutal or metafane before injection of DiI-HDL (800 μg protein/kg) into the left jugular vein. 1 hour later the anesthetized animals were perfused with oxygenated HBSS. Frozen sections (12 μm thick) of sucrose-infiltrated tissues were prepared. Tissue sections were viewed and photographed with a Zeiss photomicroscope III with the appropriate filter package.

[1] = Plasma total cholesterol and FPLC lipoprotein profile of PROBUCOL-fed mice; format: in vivo; conditions: for Reduction of plasma cholesterol levels: 0.5% PROBUCOL chow; for Average plasma total cholesterol (±SEM): 0.5% PROBUCOL-enriched chow
Procedure: (§1) • Lipoprotein analysis. Plasma, collected from Avertin anesthetized mice, was size fractionated by FPLC, and the total cholesterol in each fraction or in unfractionated plasma was determined as described previously (Rigotti, A., et al. 1997 Proc. Natl. Acad. Sci. USA. 94:12610–12615) or by using a commercial kit (Wako Chemical USA Inc., Richmond, Va., USA). For apoA-I KO mice, 500 μl of pooled plasma was used for FPLC analyses. • Animals. […] Opinl Lipidol. 11:123-131 (2000)), apoA-I KO (Kozarsky, et al., Nature 387414–417 (1997)) (C57BL/6; The Jackson Laboratory, Bar Harbor, Me., USA), and RAG-2 KO (mixed C57BL/6×129×BALB/c background; gift from Jianzhu Chen, Massachusetts Institute of Technology). Double SR-BI/apoA-I KO and SR-BI/RAG-2 KO mice were produced by (a) mating SR-BI KO males with apoA-I KO or RAG-2-KO females, (b) transferring the resulting embryos into Swiss Webster recipients, and (c) intercrossing the double heterozygous offspring.

[2] = tested on: SR-BI KO and wild-type female mice; test: Fertility of female mice mated with wild-type males; format: in vivo
Procedure: as §1
Colonies were maintained by crossing double- KO males with females heterozygous for the SR-BI null mutation and homozygous for the apoA-I or RAG-2 mutation to optimize the low yield of SR-BI homozygotes. It has been possible to obtain only a few homozygous null SR-BI KO mice on an essentially pure C57BL/6 background (backcrossed nine times to pure C57BL/6 mice). Experiments with these (n=3; 4- month matings, no litters) and additional mixed background SR-BI KO mice (n=19) confirmed the extremely low fertility of female SR-BI KO mice. PCR was used for genotyping the various mutant mouse lines. The primers for analyses were as follows: for SR-BI, the primers were as described by Rigotti, et al., Proc. Natl. Acad. Sci. USA 94:12610–12615 (1997); for apoA-I, the following set of four primers were used: 5′ -[…]-3′ (SEQ ID NO:8), 5′-[…]-3′(SEQ ID NO:9), 5′-[…]-3′ (SEQ ID NO:10), and 5′-[…]-3 (SEQ ID NO:11)′ (sequences and protocols originally from the Jackson Laboratories), or primers 5′-[…]-3″ (SEQ ID NO: 12) and 5′-[…]-3′(SEQ ID NO:13); and for RAG-2, the primers were 5′-[…]-3″(SEQ ID NO:14) and 5′-[…]-3″ (SEQ ID NO:15) (kindly provided by Charles Whitehurst, Massachusetts Institute of Technology). All animal studies were approved by the Massachusetts Institute of Technology Committee on Animal Care. To test the fertility of genetically, surgically, or pharmacologically manipulated female mice, virgin females were housed continuously with wild-type males, and numbers of litters and pups were counted during the mating period. […] Otherwise shorter 1- to 2-month mating periods were used when the fertile females produced litters relatively quickly. • Ovary transplantation. Donor SR-BI KO or control wild-type mice (5–6 weeks of age) were sacrificed by cervical dislocation, and the ovaries were removed. Hosts (RAG-2 KO mice), 4–6 weeks of age, were anesthetized with 2.5% Avertin (intraperitoneally), and ovary transfer surgery was performed. In brief, ovaries of the host mice were removed from the surrounding ovarian bursa by cutting the side opposite to the ovarian hilus. Ovaries from the donor mice were then inserted into the ovarian bursa and the bursa closed with Vetbond tissue adhesive (3M Animal Care Products, St. Paul, Minn., USA). In sham ovary transplants (n=5), ovaries of SR-BI KO mice were removed and reinserted into the same mouse (either unilaterally when the contralateral oviduct was cut, n=1, or bilaterally, n=4). […]

[3] = estrogen-treated versus control rats
[4] = rat, 5 mg/kg subcutaneous for five consecutive days, versus sham-injected
[5] = PROBUCOL-fed SR-BI KO females, n=14, 1- to 2-month mating

| Molecule | SR-BI expressed in the liver (SR-BI; [3]) | SR-BI in the ovaries (SR-BI; [3]) | SR-BI expression in adrenal membranes (SR-BI; [4]) | SR-BI levels in tissues showing trace signal (lung, testes, skin) (SR-BI; [4]) | SR-BI expression (immunoblot compared with LDL receptor) (SR-BI; rat, estrogen-treated, liver) | LDL receptor expression (LDL receptor) | DiI-HDL fluorescence in the ovaries (HDL lipid uptake) | Uptake of lipid into adrenal tissues (HDL lipid uptake) | Reduction of plasma cholesterol levels ([1]; SR-BI KO mice) | Average plasma total cholesterol (±SEM) ([1]; SR-BI KO mice, n=14) | Effect on apparent sizes of the HDLs ([1]; wild-type and SR-BI KO mice, FPLC) | Reduction of plasma cholesterol levels ([1]; wild-type mice) | Average plasma total cholesterol (±SEM) ([1]; wild-type mice, n=9) | Average time from mating to delivery ([2]; PROBUCOL-fed SR-BI KO females) | Average litter size [2, 5] | Percentage of females producing litters [2, 5] | Average litter size ([2]; PROBUCOL-fed wild-type females, n=9, 1- to 2-month mating) | Restoration of fertility ([2]; SR-BI KO females, treatment began 1–3.5 weeks before mating and continued throughout) |
| --- | --- | --- | --- | --- | --- | --- | --- | --- | --- | --- | --- | --- | --- | --- | --- | --- | --- | --- |
| 17-α-ethylenyl estradiol [estrogen] | significantly reduced levels | elevated levels | upregulation of SR-BI | no change in SR-BI levels | dramatically downregulated | tremendous upregulation | elevated levels | dramatically increased |  |  |  |  |  |  |  |  |  |  |
| CC(C)(Sc1cc(C(C)(C)C)c(O)c(C(C)(C)C)c1)Sc1cc(C(C)(C)C)c(O)c(C(C)(C)C)c1 [PROBUCOL™, 4,4′-(isopropylidenedithio) bis(2,6-di-tert-butylphenol)] |  |  |  |  |  |  |  |  | approximately 49% | 107.8 ± 6.3 mg/dL | without substantially altering the apparent sizes of the HDLs | approximately 67% | 33.6 ± 3.4 mg/dL | 28.4 days | 5.7 | 93% | 5.3 | completely restored fertility |
